The source of these data is PubChem BioAssay (NCI).

The structures appear in SMILES notation.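 Interpolation was linear, between the two tested concentrations surrounding the appropriate level; five concentrations were tested over 48 hours in 96-well plates. The concentration for 50% growth inhibition is given as GI50. TGI: concentration producing complete growth inhibition.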

Test systems include A498 renal; HCT-116 colon; HS 578T breast; IGROV1 ovarian; SK-MEL-2 melanoma; T-47D breast; UACC-62 melanoma; A549 NSCLC; NCI-H226 lung; K-562 leukemia.
Assay in all cases: NCI-60 cell line screen, 48 h

For `COc1ccc(C2=NN(C(C)=O)C(c3ccc(Oc4ccnc5cc(Cl)ccc45)c(OC)c3)C2)cc1` (centres undefined), the GI50 in the test on A498 renal was 15.2 µM; in the test with HCT-116 colon, 2.61 µM; in the test with HS 578T breast, 5.15 µM; in the test with IGROV1 ovarian, 6.29 µM; in the test on SK-MEL-2 melanoma it was 7.13 µM; in the test with T-47D breast, 5.54 µM. In the test with UACC-62 melanoma, the GI50 is 5.35 µM. For the same compound, the TGI in the test with A498 renal was 92.2 µM; in the test with HCT-116 colon it was over 100 µM; in the test on HS 578T breast it was over 100 µM; in the test with IGROV1 ovarian, over 100 µM; in the test on SK-MEL-2 melanoma it was 26.7 µM; in the test with T-47D breast, 34.9 µM. In the test with UACC-62 melanoma, this compound showed a TGI of over 100 µM.

Regarding `O=C(c1ccccc1)C1OC1C(=O)c1ccccc1` (centres undefined), the GI50 with A498 renal was 19.7 µM; in the test on A549 NSCLC it was 4.17 µM; with HCT-116 colon, 2.09 µM; in the test on HS 578T breast, 3.01 µM; with IGROV1 ovarian it was 3.56 µM; with NCI-H226 lung it was 5.24 µM. For the same compound, the GI50 with SK-MEL-2 melanoma was 2.66 µM; in the test with T-47D breast it was 3.51 µM; in the test on UACC-62 melanoma, 2.91 µM. The TGI in the test with A498 renal was over 100 µM; in the test with A549 NSCLC it was 39.2 µM; in the test with HCT-116 colon it was 11.4 µM; in the test on HS 578T breast it was over 100 µM; with IGROV1 ovarian it was 15 µM; with NCI-H226 lung, over 100 µM. For the same compound, the TGI was 9.53 µM with SK-MEL-2 melanoma, over 100 µM in the test on T-47D breast and 15.9 µM in the test on UACC-62 melanoma.

For the compound `O=C1c2cc3c(cc2-c2c1c1ccc(F)cc1c(=O)n2C[C@H](O)[C@H](O)[C@H](O)CO)OCO3`, the GI50 in the test with A498 renal was 0.142 µM; in the test on HS 578T breast, 0.506 µM; in the test with IGROV1 ovarian it was 0.322 µM; with K-562 leukemia, 0.136 µM; in the test with SK-MEL-2 melanoma it was 0.233 µM; in the test on T-47D breast, 0.0419 µM. In addition, the GI50 in the test on UACC-62 melanoma was 0.04 µM. In addition, the TGI in the test on A498 renal was 0.327 µM; in the test on HS 578T breast it was 9.62 µM; with IGROV1 ovarian, over 100 µM; in the test on K-562 leukemia, over 100 µM; in the test on SK-MEL-2 melanoma, 0.596 µM; with T-47D breast, 0.391 µM. In addition, in the test on UACC-62 melanoma, the TGI turned out to be 0.195 µM.

For `O=[N+]([O-])c1ccc(N=Nc2c(Cl)cc(O)cc2Cl)cc1`, the GI50 is 1.73 µM with A498 renal; 2.88 µM in the test with A549 NSCLC; 0.722 µM in the test on HCT-116 colon; 1.11 µM in the test on HS 578T breast; 0.605 µM in the test on K-562 leukemia; 2.83 µM in the test on NCI-H226 lung. For the same compound, the GI50 in the test on SK-MEL-2 melanoma is 1.66 µM; with T-47D breast it was 0.657 µM; in the test with UACC-62 melanoma it was 1.39 µM. In addition, the TGI in the test with A498 renal was 4.6 µM; in the test with A549 NSCLC, 11.8 µM; with HCT-116 colon it was 3.08 µM; in the test on HS 578T breast, 9.06 µM; in the test with K-562 leukemia it was over 100 µM; in the test with NCI-H226 lung it was 11.3 µM. Moreover, the figures for the TGI with SK-MEL-2 melanoma, in the test with T-47D breast and in the test on UACC-62 melanoma were 4.39 µM, 5.46 µM and 3.59 µM, respectively.

Take `OCCN(CCO)c1nc(N2CCCCC2)c2nc(N(CCO)CCO)nc(N3CCCCC3)c2n1`: the TGI is over 100 µM in the test with A549 NSCLC; over 100 µM in the test with HCT-116 colon; 79.6 µM in the test with HS 578T breast; over 100 µM in the test on IGROV1 ovarian; over 100 µM in the test with K-562 leukemia; over 100 µM in the test with NCI-H226 lung. For the same compound, the TGI with SK-MEL-2 melanoma and in the test on T-47D breast was over 100 µM in each case.

Consider `CCN(CCO)CCCC(C)Nc1ccnc2cc(Cl)ccc12` (centres undefined), for which the GI50 in the test with A498 renal, in the test with A549 NSCLC, in the test with HCT-116 colon, in the test with HS 578T breast, with IGROV1 ovarian and in the test on NCI-H226 lung was over 100 µM each time. Also, the GI50 in the test on SK-MEL-2 melanoma, with T-47D breast and with UACC-62 melanoma was over 100 µM throughout. Further, the TGI with A498 renal, in the test on A549 NSCLC, in the test with HCT-116 colon, in the test with HS 578T breast, with IGROV1 ovarian and with NCI-H226 lung was over 100 µM throughout. Besides, the TGI in the test on SK-MEL-2 melanoma, in the test with T-47D breast and in the test with UACC-62 melanoma was over 100 µM throughout.

`O=C1OC(c2ccc(Cl)cc2)=N/C1=C\c1ccccc1`: the TGI in the test on A549 NSCLC, in the test on HCT-116 colon, in the test with HS 578T breast, in the test with IGROV1 ovarian, in the test with K-562 leukemia and in the test on NCI-H226 lung was over 100 µM throughout. The TGI with SK-MEL-2 melanoma, in the test with T-47D breast and in the test with UACC-62 melanoma was over 100 µM in each case.

In the case of `CC[C@]12C=CCN3CC[C@@]4(c5ccc(OC)cc5N(C)[C@H]4[C@@](O)(C(=O)OC)[C@@H]1OC(=O)CCC(=O)O[C@H]1CC[C@H]4[C@@H]5CC[C@H]6CC(=O)CC[C@]6(C)[C@H]5CC[C@]14C)[C@@H]32`, the GI50 with A498 renal is 4.13 µM; in the test on A549 NSCLC, 4.19 µM; in the test on HCT-116 colon, 1.02 µM; with HS 578T breast, 3.65 µM; in the test on IGROV1 ovarian it was 3.17 µM; with NCI-H226 lung it was 3.84 µM. The GI50 in the test with SK-MEL-2 melanoma was 2.49 µM; in the test with T-47D breast, 2.1 µM; in the test with UACC-62 melanoma it was 3.25 µM. For the same compound, the TGI in the test on A498 renal was 30.8 µM; in the test on A549 NSCLC it was 35.3 µM; with HCT-116 colon, 10.1 µM; in the test on HS 578T breast it was over 100 µM; in the test on IGROV1 ovarian, over 100 µM; in the test with NCI-H226 lung it was over 100 µM. For the same compound, the values for the TGI in the test with SK-MEL-2 melanoma, in the test on T-47D breast and in the test with UACC-62 melanoma were 6.18 µM, 29.7 µM and over 100 µM, respectively.

For `O=C(c1ccc2ccccc2c1)c1c(C(F)(F)F)n([O-])c2cc(C(F)(F)F)ccc2[n+]1=O`, the GI50 in the test on A549 NSCLC was 1.66 µM; in the test on HCT-116 colon it was 1.41 µM; in the test with IGROV1 ovarian, 1.71 µM; with K-562 leukemia it was 1.38 µM; with NCI-H226 lung, 1.49 µM; in the test with SK-MEL-2 melanoma, 2.02 µM. The GI50 in the test on T-47D breast is 1.31 µM; with UACC-62 melanoma it was 1.55 µM. Besides, the TGI was 3.51 µM in the test on A549 NSCLC; 2.78 µM in the test with HCT-116 colon; over 22.2 µM in the test on HS 578T breast; 3.36 µM in the test on IGROV1 ovarian; 2.9 µM with K-562 leukemia; 3.5 µM in the test with NCI-H226 lung. In addition, the figures for the TGI in the test on SK-MEL-2 melanoma, in the test on T-47D breast and in the test with UACC-62 melanoma were 3.86 µM, 3.38 µM and 3.06 µM, respectively.
